Results on one compound are retold here after patent US11066412B2, “Substituted pyrrolo[2,1-a]phthalazines and benzo[g]pyrrolo[2,1-a]phthalazines for the treatment of cancer” (Academia Sinica, priority 2017, dated 2021).

Series [1] is described as follows: solubility / hydrophobicity (statement). The class given is physicochemical.
The next series addresses T1, VEGFR-2 (Homo sapiens, UniProt P35968).
T1 construct: endogenous in cells; host or cells: EA.hy926 endothelial cells
The experiment in a line: VEGFR-2 activation, western blotting in EA.hy926 cells. Format: cell-based. The procedure: In the present example, BO-2590 and BO-2577 were subject to the test of their activity in suppressing VEGFR-2 by western blotting analysis. Briefly, the endothelial EA.hy926 cells were incubated with BO-2590 or BO-2577 at various concentrations for 12 hr. The primary antibodies, anti-VEGFR-2 and anti-p-VEGFR-2, were used to blot the proteins of total VEGFR-2 and p-VEGFR-2, respectively. Results are illustrated in FIG. 3.
(In general: A western blot detects proteins with antibodies after separation by electrophoresis.)

T1 sequence (P35968 20-1356): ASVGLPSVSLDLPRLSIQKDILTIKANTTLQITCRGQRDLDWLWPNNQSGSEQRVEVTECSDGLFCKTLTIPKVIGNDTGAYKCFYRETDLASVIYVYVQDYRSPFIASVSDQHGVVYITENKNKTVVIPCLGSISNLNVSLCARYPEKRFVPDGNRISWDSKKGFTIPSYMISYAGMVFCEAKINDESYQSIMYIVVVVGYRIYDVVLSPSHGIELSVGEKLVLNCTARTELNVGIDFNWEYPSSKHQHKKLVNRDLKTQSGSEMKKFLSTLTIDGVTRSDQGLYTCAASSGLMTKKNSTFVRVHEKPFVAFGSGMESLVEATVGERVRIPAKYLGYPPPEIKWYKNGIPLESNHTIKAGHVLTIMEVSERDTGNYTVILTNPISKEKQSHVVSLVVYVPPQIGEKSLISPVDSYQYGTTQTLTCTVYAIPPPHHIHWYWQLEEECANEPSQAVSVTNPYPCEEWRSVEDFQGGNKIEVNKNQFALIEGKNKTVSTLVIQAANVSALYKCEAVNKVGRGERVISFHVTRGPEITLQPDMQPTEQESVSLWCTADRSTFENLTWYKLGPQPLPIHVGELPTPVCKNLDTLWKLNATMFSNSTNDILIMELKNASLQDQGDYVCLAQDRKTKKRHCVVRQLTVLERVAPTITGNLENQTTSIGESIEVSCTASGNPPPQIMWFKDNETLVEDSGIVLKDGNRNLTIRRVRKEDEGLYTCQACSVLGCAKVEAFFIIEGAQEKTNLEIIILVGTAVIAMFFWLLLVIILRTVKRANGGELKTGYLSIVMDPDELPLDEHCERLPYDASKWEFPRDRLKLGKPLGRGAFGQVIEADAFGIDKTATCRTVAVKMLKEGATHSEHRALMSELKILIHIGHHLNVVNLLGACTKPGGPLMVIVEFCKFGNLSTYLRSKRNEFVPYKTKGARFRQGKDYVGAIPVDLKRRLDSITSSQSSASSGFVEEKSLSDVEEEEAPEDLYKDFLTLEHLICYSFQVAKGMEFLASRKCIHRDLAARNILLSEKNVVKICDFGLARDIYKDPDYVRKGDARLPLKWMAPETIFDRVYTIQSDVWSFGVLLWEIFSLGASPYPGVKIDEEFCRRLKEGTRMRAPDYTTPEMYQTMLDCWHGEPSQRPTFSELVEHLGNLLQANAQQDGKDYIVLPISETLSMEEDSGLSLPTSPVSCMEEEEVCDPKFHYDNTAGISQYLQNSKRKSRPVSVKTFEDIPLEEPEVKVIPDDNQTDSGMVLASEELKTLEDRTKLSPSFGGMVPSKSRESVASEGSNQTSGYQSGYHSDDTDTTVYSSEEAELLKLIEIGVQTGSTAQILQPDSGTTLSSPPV

As for `Cc1c(CO)c(CO)c2c3ccccc3c(N3CCC(N4CCCCC4)CC3)nn12` [BO-2590, (6-([1,4′-Bipiperidin]-1′-yl)-3-methylpyrrolo[2,1-α]phthalazine-1,2-diyl)dimethanol], in series [1], the solubility entry is “poor”. At VEGFR-2 (EA.hy926 cells, 12 hr, FIG. 3), the p-VEGFR-2 protein levels entry was “marked suppression in p-VEGFR-2 protein levels” and the “total protein levels of VEGFR-2” value was “did not significantly change the total protein levels of VEGFR-2”. Further, the “dose effective on suppression of p-VEGFR-2, lower than that of Valatanib” value at VEGFR-2 (relative to Valatanib) is about 10 folds.
